The record followed here is patent US20220054532A1, “VETERINARY COMPOSITIONS AND METHODS OF USE THEREFOR” (priority 2019, published 2022).

Common to all, as to format: in vivo
In data set [1] the test system is cats suffering from GI-specific inflammation. As to the kind of experiment: Example 3: GI-specific inflammation, owner-rated symptom reduction (feline). The settings on record: symptom reduction score 0 (no reduction) to 4 (resolution of symptoms); for Final Score: after 28 days BID. From the text:
(§1) This example examines the ability of embodiments of the invention versus Pepcid® to treat unwanted GI-specific inflammation characterized by gastritis, reflux, vomiting, diarrhea, and inappetence.
(§2) The first patient group is twenty dogs suffering from GI-specific inflammation. The second patient group is twenty cats suffering from GI-specific inflammation. Each patient group is broken into five groups of four animals. The first groups receive Pepcid® as the sole active agent; the second groups receive a composition comprising HMW HA as the sole active agent; the third groups receive a composition comprising CBD as the sole active agent; the fourth groups receive a composition comprising HMW HA and CBD as the active agents; and the fifth groups receive a composition comprising HMW HA, CBD, and glutathione as the active agents.
(§3) Each composition is administered for a period of twenty-eight (28) days, BID. The owner observes potential reduction of symptoms at the end of treatment and rates the reduction as no reduction (score of 0), mild reduction (score of 1), moderate reduction (score of 2), significant reduction (score of 3), or resolution of symptoms (score of 4).
The following feline scores are observed and the results depicted in FIG. 3b: […]

For data set [2] the test system is unchanged. As to the kind of experiment: Example 11: GI-specific inflammation, owner-rated symptom reduction. The settings on record: species not given, symptom reduction score 0 to 4; for Final Score: after 28 days BID.
Excerpt: as §1
as §2, with “and CBD Complex as the” for “and CBD as the”, “HMW HA, CBD Complex, and glutathione” for “HMW HA, CBD, and glutathione”
as §3

The test system of data set [3] is dogs suffering from heart failure. In words: Example 15: heart failure in dogs (CBD Complex). The settings on record: heart failure scale 1 (few to no clinical signs) to 10 (severe); for Initial Score: day 0; for Final Score: day 90, BID. The source says:
This example examines the ability of embodiments of the invention versus enalapril to treat heart failure.
The patient group is twenty-four dogs suffering from heart failure.
The patient group is broken into six groups of four dogs. The first group receives enalapril as the sole active agent; the second group receives a composition comprising enalapril and Lasix®; the third group receives a composition comprising HMW HA as the sole active agent; the fourth group receives a composition comprising CBD as the sole active agent; the fifth group receives a composition comprising HMW HA and CBD Complex as the active agents; and the sixth group receives a composition comprising HMW HA, CBD Complex, liposomal CoQ10, hawthorn berry, and ginko biloba as the active agents.
Each composition is administered for a period of ninety (90) days, BID. Each animal is evaluated on days 0 (“Initial Score”), 30, 60, and 90 (“Final Score”) of treatment. The results are averaged and characterized on a scale of 1 (few to no clinical signs of heart failure) to 10 (severe heart failure).

The test system of data set [4] is dogs suffering behavior aberrations and/or anxiety. As to the kind of experiment: Example 13: behavior aberrations and anxiety, C-BARQ (canine, CBD Complex). The conditions noted are these: C-BARQ day 0 vs 60, SID, 0 (no improvement) to 3 (marked improvement). The source says: This example examines the ability of embodiments of the invention versus Clomicalm® to reduce behavior aberrations and anxiety.
The first patient group is twenty dogs suffering behavior aberrations and/or anxiety, as determined by the canine behavioral assessment and research questionnaire (“C-BARQ”). […] The second patient group is twenty cats suffering behavior aberrations and/or anxiety, as determined by the feline behavioral assessment and research questionnaire (“Fe-BARQ”).
Each group is broken into five groups of four animals. The first group receives Clomicalm® as the sole active agent; the second group receives a composition comprising HMW HA as the sole active agent; the third group receives a composition comprising CBD as the sole active agent; the fourth group receives a composition comprising HMW HA and CBD Complex as the active agents; and the fifth group receives a composition comprising HMW HA, CBD Complex, valerian root, and scutillaria as the active agents.
Each composition is administered for a period of sixty (60) days, once a day (“SID”). Owners complete the species-appropriate C-BARQ or Fe-BARQ on days 0 and 60 of treatment. The results from the overall questionnaire are averaged and characterized as no improvement (score of 0), mild improvement (score of 1), moderate improvement (score of 2), or marked improvement (score of 3).

Data set [5] relates to dogs suffering from GI-specific inflammation. As to the kind of experiment: Example 11: GI-specific inflammation, owner-rated symptom reduction (canine, CBD Complex). The conditions noted are these: canine (FIG. 11a), symptom reduction score 0 (no reduction) to 4 (resolution of symptoms); for Final Score: after 28 days BID.
Excerpt: as §1
as §2, with “and CBD Complex as the” for “and CBD as the”, “HMW HA, CBD Complex, and glutathione” for “HMW HA, CBD, and glutathione”
as §3

Data set [6] deals with dogs with a history of severe, chronic skin issues, atopy, pruritis, yeast overgrowth, and/or infection. In words: Example 8: skin conditions (itch score) and side effects in dogs. The conditions noted are these: for Average Side Effect Score: dogs with skin conditions, 60 days BID; for Initial Itch Score / Final Itch Score: itch scale 0 (no itching) to 10 (extremely severe); for Initial Itch Score: day 0; for Final Itch Score: day 60, BID. Details: Average Side Effect Score: scale not given here. The source says:
This example examines the ability of embodiments of the invention versus prednisone to treat skin conditions.
The patient group is twenty-four dogs with a history of severe, chronic skin issues, atopy, pruritis, yeast overgrowth, and/or infection, as diagnosed by their referring veterinarian. The patient group is broken into six groups of four animals. The first group receives prednisone as the sole active agent; the second group receives a composition comprising prednisone and HMW HA as the active agents; the third group receives a composition comprising HMW HA as the sole active agent; the fourth group receives a composition comprising CBD as the sole active agent; the fifth group receives a composition comprising HMW HA and CBD as the active agents; and the sixth group receives a composition comprising HMW HA, CBD, quercetin, and nettles as the active agents.
Each composition is administered for a period of sixty (60) days, BID. Each dog is evaluated on days 0 (“Initial Score”), 20, 40, and 60 (“Final Score”) of treatment. The results are averaged and characterized on a scale of 0 (no itching—normal dog), 2 (very mild itching—only occasional episodes), 4 (mild itching), 6 (moderate itching—regular episodes), 8 (severe itching—prolonged episodes), to 10 (extremely severe itching—almost continuous).
The following scores are observed and the results depicted in FIG. 8: […]

As to `C=C(C)[C@@H]1CCC(C)=C[C@H]1c1c(O)cc(CCCCC)cc1O` [CBD Alone, 2-[(1R,6R)-3-methyl-6-prop-1-en-2-ylcyclohex-2-en-1-yl]-5-pentylbenzene-1,3-diol], in data set [1], the “Final Score” value turned out to be 2 and the “Initial Score” value is 0. For the same molecule, in data set [2], the “Final Score” value was determined as 2 and the “Initial Score” value came to 0. In data set [3], the “Initial Score” value is on record as 8 and the “Final Score” value was determined as 4. Further, in data set [4], the “Improvement Score” value is 2. Besides, in data set [5], the “Final Score” value stood at 2 and the “Initial Score” value is reported as 0. Further, in data set [6], the “Average Side Effect Score” value is reported as “.5”, the “Initial Itch Score” value is given as 9 and the “Final Itch Score” value is 5.
As for hyaluronic acid [HMW HA Alone], in data set [1], the “Final Score” value is reported as 3 and the “Initial Score” value is 0. Also, in data set [2], the “Final Score” value is given as 3 and the “Initial Score” value is recorded as 0. Also, in data set [3], the “Initial Score” value worked out at 8 and the “Final Score” value is 4. Besides, the “Improvement Score” value in data set [4] is listed as 1. For the same molecule, in data set [5], the “Final Score” value was found to be 3 and the “Initial Score” value stood at 0. Moreover, in data set [6], the “Average Side Effect Score” value was 4, the “Initial Itch Score” value is 9 and the “Final Itch Score” value was 7.
